We go through seven molecules from EP0315491A2, “Amino-substituted pyrylium dyes and uses thereof” (EASTMAN KODAK COMPANY (a New Jersey corporation), priority 1987, dated 1989).

Structures are written as SMILES. Like-named read-outs stand apart in the source and are kept apart here.

As usually defined, the IC50 is the concentration that gives 50% inhibition. For orientation: T/C means the ratio of treated to control.

The test system of test [1] is human melanoma cell line, LOX. As to the kind of experiment: Melanoma test using nude mice protocol (survival, T/C). In kind it is in vivo. The source says:
The present invention will now be described by way of example with reference to the accompanying drawings in which: Figures 1-4 are survival plots of cancer-bearing mice treated with the dyes of this invention, compared to a control group of such mice left untreated. In these plots, "% survival" means the percentage of the total group (treated "T" or control "C") still surviving on the day in question. The 50% data point is selected for the T/C calculation, as being the point that is statistically meaningful. Effectiveness against human cancer can be inferred by tests in the nude mouse-human xenograft model, hereinafter "nude mice protocol". […] 899-903, especially p. 889 (April 1985). Nude mice, that is, those deficient in thymic functions, bred and maintained in pathogen free conditions [see J. Natl. Cancer Inst. 51:615-619 (1973)] were used in in vivo experiments. For each experiment, nude mice from the same litter and of the same sex which were over 3 months old and weighed at least 25g were injected or implanted with cancer cells. A human melanoma cell line, LOX, was used that grows rapidly when inoculated into the peritoneal cavity of the athymic mice. Tumors which had been passaged subcutaneously in athymic mice were excised under sterile conditions and converted to a single cell suspension using a metal grid with a 4 mm mesh. Red blood cells were then lysed by incubation with 0.17 molar ammonium chloride at 4°C for 30 minutes. Cells were then scored for viability with trypan blue and 5 million viable cells made up in 0.2 ml of Dulbecco modified Eagles' medium (DME) were injected intraperitoneally (IP) into a group of male athymic Swiss nu/nu mice (day 0). The mice were then randomly allocated into treatment and control groups (5% dextrose) and treatment, by intraperitoneal injection commenced the following day. In Example 6, five mice received 5 mg/kg of the drug T-5, Table I, administered Monday, Wednesday & Friday of each week for a total of 11 injections. Five mice received the same volume of the control 5% dextrose solution on the same days. […]

The test system of test [2] is human ovarian carcinoma line OVCAR-3. As to the kind of experiment: Ovarian carcinoma (OVCAR-3) test using nude mice protocol (survival, T/C). In kind it is in vivo. Conditions: for T/C: female nude mice, OVCAR-3 xenograft, three injections per week for 6 weeks (Fig. 3). The text has this:
The present invention will now be described by way of example with reference to the accompanying drawings in which: Figures 1-4 are survival plots of cancer-bearing mice treated with the dyes of this invention, compared to a control group of such mice left untreated. In these plots, "% survival" means the percentage of the total group (treated "T" or control "C") still surviving on the day in question. The 50% data point is selected for the T/C calculation, as being the point that is statistically meaningful. Nude mice, that is, those deficient in thymic functions, bred and maintained in pathogen free conditions [see J. Natl. Cancer Inst. 51:615-619 (1973)] were used in in vivo experiments. For each experiment, nude mice from the same litter and of the same sex which were over 3 months old and weighed at least 25g were injected or implanted with cancer cells. Examples 6 and 7 were repeated, except they were administered to female nude mice (aged 8-12 weeks) xenografted with human ovarian carcinoma line OVCAR-3. Eight mice in Example 6, and 8 mice in Example 7 were selected for treatment with the thiopyrylium, in an amount of 2.5 and 5 mg/kg respectively, administered IP 1 day after the cancer cells were injected. This was repeated as follows: Three injections per week for 6 weeks. Eight mice were used as the control group and were injected with 0.25 ml of 5% dextrose in water.

In the next test the test system is L1210 leukemia cells. Description: In vitro IC50, suspension culture, cell count by Coulter Counter. In kind it is cell-based. Conditions: compound present for 48 hours (four cell doubling times), read-out: IC50 L1210 Mouse Lymphoma. How it is done:
(§1) Although these examples were not tested in animal models, their similar efficacy in human melanoma and differentiated carcinomas is predicated from the fact they had similar in vitro results compared to T-5. The in vitro tests were run as follows, to ascertain the IC₅₀ concentrations. (IC₅₀ is the in vitro concentration that kills one-half the cell line against which the compound is tested. The smaller the concentration, the higher the toxicity.)
(§2) For the IC₅₀ values for the human lung carcinoma line, an adhering monolayer culture was used. Two days prior to plating, a number of cells obtained from the American Type Tissue Culture Collection was selected to grow as a stock, the number being that which would ensure the cells had not reached their plateau at the time of the in vitro test. On day 1 of the assay, asynchronous exponentially growing cells from this stock were suspended in a conventional complete medium comprising RPMI 1640 medium supplemented with 5% (v/v) fetal calf serum and 5% (v/v) NV serum obtained from Collaborative Research, and 20mM HEPES buffer, i.e., 4-(2-hydroxyethyl)-1-piperazineethanesulfonic acid. This was plated into a conventional 96-well tissue culture plate using a Cetus/Perkin Elmer automated pipetting device with a dual supply manifold. The cells were then incubated for 48 hours at 37°C in a humidified atmosphere containing 5% CO₂. Selected cells were then incubated under red light for 3 hours in the presence of varying amounts of the compound of interest at 37°C in a humidified incubator containing 5% CO₂. Compounds were tested over a 6-log range of concentrations. The drug treated cells were then rinsed one time with complete medium as set forth above, and incubated in complete medium the length of time appropriate to achieve four cell-doubling times (roughly 7 days for these cell lines). The medium was removed and the cells stained for 1-2 hours at 37°C with 0.1% (w/v) neutral red dye obtained from Eastman Kodak Co., dissolved in phosphate buffered saline (PBS) (without calcium or magnesium cations) at a pH of 6.85. The cells were rinsed twice with the same PBS and dried. Excess neutral red dye was eluted from each well with 50% (v/v) ethanol in 1% (v/v) aqueous glacial acetic acid. The absorbency of each well was quantitated using a Perkin-Elmer absorbence densitameter set at 540 nm. The percent of inhibition of cell growth for a given concentration of compound was calculated using the equation: [formula] where At = absorbence of the cells treated with the candidate drug, Au = absorbence of the control treated with solvent only, and Ab = absorbence of the media and well only (background). […] The plotted data was then fitted to the curve for the function: F(x) = 100 - [100(X/A)^B/(1+(X/A)^B)] where x = the concentration of the test compound, A = the IC₅₀ value (50% inhibition on the plot) and B = the exponent of the fitted function.
To determine the IC₅₀ for the L1210 leukemia cells, a suspension culture was used. The procedure for the monolayer culture was followed, except that the cells were seeded at a density of 3 X 10⁴ cells/ml in the RPMI 1640 medium supplemented this time with 10% (v/v) NV SERUM, no calf serum, and 20mM HEPES buffer, with the compound of interest already added. These were added immediately to a conventional 24-well culture plate and incubated for a four cell doubling time (48 hours for this cell line). Cell numbers were quantitated using the Model ZF Coulter Counter. F(x) was obtained from the equation: [formula] where Nt = number of treated cells detected, never less than No, Nu = number of cells detected in the control that were untreated except for the solvent, and No = number of cells initially seeded.

The test system of test [3] is human lung carcinoma line. Description: In vitro IC50, adhering monolayer culture, neutral red staining. In kind it is cell-based. Conditions: 3 hours drug exposure under red light, then about 7 days growth, read-out: IC50 Lung Adeno-carcinoma. Here is the method: as §1, §2
For test [4], the system named is MB49 tumor cells. Description: Mouse bladder carcinoma, tumor cells and drug given IP (survival, T/C). In kind it is in vivo. Conditions: normal male BDFI mice, MB49 cells IP. The source says: The present invention will now be described by way of example with reference to the accompanying drawings in which: Figures 1-4 are survival plots of cancer-bearing mice treated with the dyes of this invention, compared to a control group of such mice left untreated. In these plots, "% survival" means the percentage of the total group (treated "T" or control "C") still surviving on the day in question. The 50% data point is selected for the T/C calculation, as being the point that is statistically meaningful. MB49 tumor cells, that is, mouse carcinoma cells induced by the carcinogen 7,12-dimethyl benz[a]anthracene, were obtained by conventional processes and injected intraperitoneally into normal male BDFI mice (5 million/mouse). Each drug treated group and control group had 5 mice. In example 8, 5 mg/kg of T-5 was administered 3 times per week for three weeks, starting Day 1. In Example 9, it was 3 mg/kg three times per week for 3 weeks.

The test system of test [5] is MB49 tumor cells. As to the kind of experiment: Mouse bladder carcinoma, tumor cells mixed with drug before instillation into the bladder (bladder weight). Conditions: 21 days after tumor initiation; from mean bladder weights vs controls; MB49 cells (4 X 10⁶) mixed with 0.05 mg/ml drug before instillation into the mouse bladder. In kind it is in vivo. Here is the method:
These values were calculated by dividing the difference between the mean weight of bladders from controls (water-treated animals) and mean weight of bladders of drug-treated animals by the mean weight of bladders from control animals and multiplying this fraction by 100. (In this experiment, the drug was administered by mixing the MB49 tumor cells (4 X 10⁶) with 0.05 mg/ml of the drug prior to instillation of the cell suspension into the mouse bladder.)

On to `CN(C)c1ccc(-c2cc(-c3ccccc3)[s+]c(-c3ccccn3)c2)cc1` [4-(4-N,N-dimethylaminophenyl-2-phenyl-6-(2-pyridyl)thiopyrylium chloride, reference compound], for which the T/C against melanoma in test [1] (comparative example, xenografted human melanoma, very similar procedures, dose not stated, also listed in the Related Application) came out at 227%. In addition, in test [2] (comparative example, xenografted human ovarian cancer, very similar procedures, dose not stated, also listed in the Related Application), the “T/C against the ovarian carcinoma” value is 340%.

In the case of `CN(C)c1ccc(-c2cc(-c3cccc(N)c3)[s+]c(-c3cccc(N)c3)c2)cc1` [Compound T-1, 2,6-Bis(3-aminophenyl)-4-[4-(dimethyl-amino)phenyl]thiopyrylium chloride], the half-inhibitory concentration (IC50) in the test on L1210 leukemia cells (Mus musculus, L1210, 48 h) was 38 nM; in test [3] (Homo sapiens), 370 nM.

As to `Nc1ccc(-c2cc(-c3ccc(N)cc3)[s+]c(-c3ccc(N)cc3)c2)cc1` [Compound T-2, 2,4,6-Tris(4-aminophenyl)thiopyrylium chloride], the 50% inhibitory concentration (IC50) in the test with L1210 leukemia cells (Mus musculus, L1210, 48 h) was 270 nM; in test [3] (Homo sapiens), 190 nM.

As for `Nc1ccc(-c2cc(-c3ccccc3)cc(-c3ccc(N)cc3)[s+]2)cc1` [Compound T-3, 2,6-Bis(4-aminophenyl)-4-phenylthiopyrylium chloride], the half-inhibitory concentration (IC50) was 33 nM in the test with L1210 leukemia cells (Mus musculus, L1210, 48 h) and 17 nM in test [3] (Homo sapiens).

`COc1ccc(-c2cc(-c3ccc(N)cc3)[s+]c(-c3ccc(N)cc3)c2)cc1` [Compound T-4, 2,6-Bis(4-aminophenyl)-4-(4-methoxyphenyl)-thiopyrylium chloride]: the IC50 was 10 nM in the test with L1210 leukemia cells (Mus musculus, L1210, 48 h) and 11 nM in test [3] (Homo sapiens).

As for `CN(C)c1ccc(-c2cc(-c3ccc(N)cc3)[s+]c(-c3ccc(N)cc3)c2)cc1.[Cl-]` [Compound T-5, 2,6-Bis(4-aminophenyl)-4-[4-(N,N-dimethyl-amino)phenyl]thiopyrylium chloride], the T/C in test [1] (male athymic Swiss nu/nu mice, LOX cells IP, 5 mg/kg IP Monday, Wednesday & Friday, 11 injections, 50% survival point (Fig. 1)) is 366%; in test [2] (2.5 mg/kg IP), more than 450%; in test [2] (5 mg/kg IP), more than 450%; in the test with MB49 tumor cells [4] (3 mg/kg three times per week for 3 weeks (Example 9, Fig. 4)), 344%; with MB49 tumor cells [4] (5 mg/kg 3 times per week for three weeks (Example 8, Fig. 4)), 244%. In addition, in test [1] (male athymic Swiss nu/nu mice, LOX cells IP, 8 mg/kg IP Wednesday and Saturday for 3 weeks (Fig. 2)), the “Survival (T/C)” value was 338%. The half-inhibitory concentration (IC50) in the test on L1210 leukemia cells (Mus musculus, L1210, 48 h) was 220 nM; in the test with L1210 leukemia cells, 140 nM; in test [3], 60 to 80 nM; in test [3] (Homo sapiens), 40 nM.

Consider `CN(C)c1ccc(-c2cc(-c3ccccc3)[s+]c(-c3ccc(N(C)C)cc3)c2)cc1` [Compound T-6], for which the “average inhibition in tumor growth” value in the test with MB49 tumor cells [5] was 21.6%.
